Assay results taken from patent EP4670723A1, “PI[…] USE IN THE TREATMENT OF OSTE[…] NON-HUMAN MAMMALS” (Vetbiolix, priority 2024, dated 2025).
Read-outs that look alike come from different tables or passages of the source.

Tests used:
[1] = tested on: monoidoacetate (MIA) experimental rat models; conditions: cited from earlier work
[2] = tested on: human patients; conditions: cited from earlier work; for Activity: Human
[3] = tested on: dogs with osteoarthritis (OA); test: multicentric, non-comparative, randomized proof of concept study, 90 days oral treatment of dogs with osteoarthritis; type: in vivo, dog
[4] = tested on: dogs with osteoarthritis (OA); test: as above; type: in vivo, dog; conditions: for Activity: Dog
Experimental: This was a multicentric, non-comparative, randomized proof of concept study in which 15 dogs with osteoarthritis (OA) were treated with piclidenosone (VBX1000) for 90 days.
[…] Two intermediate visits were included for clinical examination and for calculating OA scores.
The primary objective of this study was to assess the efficacy of piclidenosone to reduce OA symptoms severity after 90 days of treatment. For that purpose, OA symptoms and motility were scored by the owner using Liverpool Osteoarthritis in Dogs (LOAD) questionnaire at Day-0, Day-30, Day-60 and Day-90. […]
• Inclusion criteria • ∘ The owner approved and signed the informed consent form prior to the participation of his/her dog in the study; • ∘ Dog older than 18 months; • ∘ Dog with a Body Condition score lower than 8 (on a 9 point-scale); • ∘ Dog with a symptomatic unifocal or multifocal osteoarthritis, characterized by the presence of osteophyte on at least one site on radiographic views; • ∘ LOAD mobility total score of ≥ 11 at visit V2 (Day 0). • Exclusion criteria • ∘ Animals intended for breeding or known to be pregnant or lactating; • ∘ Dog with severe OA which requires concomitant treatment; • ∘ Presence of complete cranial cruciate ligament rupture; • ∘ Breeds at risk of MDR1 gene mutation (MDR1 genetic test required before screening of a dog from known affected breed: Collie, Border Collie, Australian and English Shepherd, German Shepherd, Long-Haired Whippet, Shetland Sheepdog); • ∘ History of orthopaedic surgery including complete cranial cruciate ligament rupture surgically treated with Tibial Tuberosity Advancement (TTA) or Tibial Plateau Leveling Osteotomy (TPLO) or elbow debridement within 3 months prior to inclusion; • ∘ Presence of musculoskeletal lesions (e.g., glycogenosis, primary muscular dystrophy) or untreated neoplasia prior to inclusion; • ∘ Presence of concurrent systemic disease such as neurologic, hepatic, renal or cardiac disease; • ∘ Dog under physical therapy (including acupuncture) for orthopaedic indication unless a 1-week wash-out period is applied prior to visit V1 (between D-21 and D-14); • ∘ Dog treated with methotrexate; • ∘ Dog treated with nonsteroidal anti-inflammatory drugs unless a 2-weeks wash-out period is applied prior to visit V1 (between D-21 and D-14); • ∘ Dog that received mavacoxib or enflicoxib within 3 months prior to visit V1 (between D-21 and D-14); • ∘ Dog treated with short-acting corticosteroids (i.e., hydrocortisone) unless a 2-weeks wash-out period is applied prior to visit V1 (between D-21 and D-14); • ∘ Dog treated with intermediate-acting corticosteroids (i.e., prednisone, prednisolone, methylprednisolone) unless a 4-weeks wash-out period is applied prior to visit V1 (between D-21 and D-14); • ∘ Dog treated with long-acting corticosteroids (i.e., dexamethasone) unless a 12-weeks wash-out period is applied prior to visit V1 (between D-21 and D-14); • ∘ Dog treated with any intra-articular injection in the joint under study within 2 months prior to visit V1 (between D-21 and D-14); • ∘ Dog treated with a subcutaneous injection of bedinvetmab unless a 4-week wash-out periods is applied prior to visit V1 (between D-21 and D-14); • ∘ Dog treated with OA modifying diet and/or food supplements (i.e., glycosaminoglycans, glucosamine and chondroitin sulphate or other) unless its administration has been regular during the month preceding visit V1 (between D-21 and D-14) and will be continued during the study duration; • ∘ Dog unable to walk on a leash. […]

[5] = tested on: patients with osteoarthritis of the knee; conditions: 1000 µg (14.5 µg/kg) twice daily orally for 12 weeks; trial discontinued; cited from earlier work
[6] = oral, 100 µg/kg body weight twice a day
[7] = 100 µg/kg bid, 90 days vs baseline

SMILES: CNC(=O)[C@H]1O[C@@H](n2cnc3c(NCc4cccc(I)c4)ncnc32)[C@H](O)[C@@H]1O [piclidenoson, 1-Deoxy-1-[6-[[(3-iodophenyl)methyl]amino]-9H-purin-9-yl]-N-methyl-β-D-ribofuranuronamide]
- Activity ([1]; Rat, Bid Dose 100 µg/kg): Yes
- NF-kappaB signaling pathway [1, 6]: deregulated
- apoptosis of inflammatory cells [1, 6]: induced apoptosis
- cartilage protection [1, 6]: cartilage protective agent
- Activity ([2]; Bid Dose 2000 µg (29 µg/kg)): Yes
- Activity ([2]; Bid Dose 4000 µg (57 µg/kg)): Yes
- Active Dose in Human ([2]; from clinical Phase 2 trials, assuming body weight of 70 kg): 0.029 mg/kg
- proportion of patient with low NRS2 (pain score) [3, 7]: non-significant increase
- LOAD score ([3]; 500 µg/kg bid oral, Day-90, N=9, baseline 22.9±7.2 at Day-0, p<0.01, primary endpoint met): 14.9±10.6
- proportion of patients with low scores, NRS2 (pain score) ([3]; 500 µg/kg bid, 90 days vs baseline, p<0.05 Fisher exact test): reached statistical significance
- proportion of patients with low scores, NRS1 (lameness score) ([3]; 500 µg/kg bid, 90 days vs baseline, statistical significance): not for NRS1
- pain score (Visual Analog Score or VAS) ([4]; 100 µg/kg bid group, 90-day treatment period): not significantly improved
- proportion of patient with low NRS1 (lameness score) [4, 7]: non-significant increase
- evidence for efficacy in the treatment of osteoarthritis in dogs ([4]; 100 µg/kg twice a day orally for 90 days): do not provide evidence for efficacy
- proportion of patient experiencing clinically meaningful improvement of LOAD score ([4]; 500 µg/kg bid group as compared to 100 µg/kg bid, decrease in LOAD score ≥4, Day-90 vs inclusion): higher
- pain score (Visual Analog Score or VAS) ([4]; 500 µg/kg bid group, statistical significance from Day-60 up to end of treatment): significant decrease
- change in LOAD score vs that obtained after ligament surgery in dogs with ligament rupture ([4]; 500 µg/kg bid, after 90 days): comparable
- Activity ([4]; Bid Dose 100 µg/kg): No
- Activity ([4]; Bid Dose 500 µg/kg): Yes
- proportion of patients showing VAS improvement (Δ≤-1) ([4]; end of treatment period, 500 µg/kg bid group as compared to 100 µg/kg bid group): superior
- temporal evolution of mean LOAD score ([4]; group 1, 100 µg/kg bid, observed at Day-30, totally disappeared at Day-60 and Day-90): transient decrease
- temporal evolution of mean LOAD score ([4]; group 2, 500 µg/kg bid, statistical significance from Day-60 to end of treatment): time-dependent decrease
- Active Dose in dog ([4]; proof-of-concept trial in dog with osteoarthritis, bid): 0.5 mg/kg
- clinical symptoms of osteoarthritis in dog ([4]; repeated oral administration at dose ≥ 500 µg/kg bid): improves clinical symptoms
- tolerance ([4]; throughout the study, 100 and 500 µg/kg bid for 90 days): well tolerated with no treatment related SAE and no death
- efficacy [5]: lack of efficacy
